Test results from patent US7667042B2, “Stable polymorphic forms of an anticonvulsant” (Sun Pharma Advanced Research Company Ltd., priority 2003, dated 2010).
Values joined by “and” are separate entries in the source; they are usually repeats but may differ in a detail not shown here. Equal entries are not always repeated. Structures can show the parent of a compound that is named as a salt.

How the values were obtained:
[1] = Particle size analysis by HELOS (H1551) & RODOS; type: physicochemical; details: hydrochloride
Excerpt: Particle Size Analysis (Analysed by HELOS (H1551) & RODOS)

[2] = reported in prior art, cited from earlier work; for Thermal stability: elevated temperature, hydrochloride
[3] = XRD analysis after 6 months storage at ambient conditions (polymorph stability); type: physicochemical; details: hydrochloride
Excerpt: In embodiment of the present invention the stable polymorph IV of tiagabine hydrochloride may be obtained in particle size with volume mean diameter (VMD) less than 20 microns.

[4] = Solubility of tiagabine hydrochloride in various solvents at room temperature; type: physicochemical; details: 100 mg sample

## Cc1ccsc1C(=CCCN1CCC[C@@H](C(=O)O)C1)c1sccc1C [Form I, tiagabine hydrochloride]
[1]
  Volume mean diameter (VMD): 60.2 microns
[2]
  Thermal stability: less stable at elevated temperature
  Hygroscopicity: non-hygroscopic
  Stability: stable

## Cc1ccsc1C(=CCCN1CCC[C@@H](C(=O)O)C1)c1sccc1C [Form II, tiagabine hydrochloride]
[2]
  Thermal stability: thermally stable
  Hygroscopicity: non-hygroscopic

## Cc1ccsc1C(=CCCN1CCC[C@@H](C(=O)O)C1)c1sccc1C [Form IV, tiagabine hydrochloride]
[3]
  Change in x-ray diffraction pattern on storage (polymorphic stability): matches the XRD of ‘0’ day sample
[3]; listed as polymorph IV
  Change in x-ray diffraction pattern on storage (polymorphic stability): no change in the x-ray diffraction pattern
[1]
  Volume mean diameter (VMD): 16.7 microns and 19.8 microns

## Cc1ccsc1C(=CCCN1CCC[C@@H](C(=O)O)C1)c1sccc1C [tiagabine hydrochloride]
[4]; Acetone
  Solubility: volume of solvent: 24 mL
[4]; Acetonitrile
  Solubility: volume of solvent: >100 mL
[4]; DMF
  Solubility: volume of solvent: 0.5 mL
[4]; Ethanol
  Solubility: volume of solvent: 0.3 mL
[4]; Ethylacetate
  Solubility: volume of solvent: >100 mL
[4]; IPA
  Solubility: volume of solvent: 1.3 mL
[4]; Methanol
  Solubility: volume of solvent: 0.2 mL
[4]; Toluene
  Solubility: volume of solvent: >100 mL
[4]; Water
  Solubility: volume of solvent: 0.7 mL
